Where two headings read alike, the source gives them in different places.
Assays:
Type in all cases: biochemical
PglC (Cj) [1] = target: T1, PglC (Cj) (Campylobacter jejuni, UniProt Q0P9D0); experiment: PGT activity assay with UDP-diNAcBac, percent inhibition at […]; details: read-out: % inhibition at 100 μM
T1 sequence (Q0P9D0 1-200): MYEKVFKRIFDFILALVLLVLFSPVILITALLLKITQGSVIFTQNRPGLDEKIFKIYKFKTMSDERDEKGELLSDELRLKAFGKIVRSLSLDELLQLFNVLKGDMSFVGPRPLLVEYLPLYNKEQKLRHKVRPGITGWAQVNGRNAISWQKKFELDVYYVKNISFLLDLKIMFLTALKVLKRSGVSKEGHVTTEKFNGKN

PglC (Cj) [2] = target: T1, PglC (Cj)
PglC (Cj) [3] = target: T1, PglC (Cj); experiment: PGT activity assay with UDP-diNAcBac, percent inhibition at […]; details: read-out: % inhibition at 100 μM; remark: listed apart in the source
WecA (Tm) = target: T2, WecA (Tm) (Thermotoga maritima, UniProt Q9X1N5); experiment: PGT activity assay
T2 sequence (Q9X1N5 1-291): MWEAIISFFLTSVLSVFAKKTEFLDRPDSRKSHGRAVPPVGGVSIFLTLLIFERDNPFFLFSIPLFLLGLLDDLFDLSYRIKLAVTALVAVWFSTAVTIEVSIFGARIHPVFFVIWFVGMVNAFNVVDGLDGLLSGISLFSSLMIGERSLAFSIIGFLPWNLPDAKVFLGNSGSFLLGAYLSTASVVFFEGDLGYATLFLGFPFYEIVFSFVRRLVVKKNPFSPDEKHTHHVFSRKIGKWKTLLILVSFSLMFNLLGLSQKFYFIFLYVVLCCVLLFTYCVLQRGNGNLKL

Work on `O=c1ccn([C@@H]2O[C@H](COP(=O)(O)C(F)(F)P(=O)(O)O)[C@@H](O)[C@H]2O)c(=O)[nH]1` [compound 3, H-CF2] yielded an inhibition at 100 µM (PglC (Cj) [1]) of 33 ± 6%.
`CC(=O)N[C@H]1[C@@H](OP(=O)(O)C(F)(F)P(=O)(O)OC[C@H]2O[C@@H](n3ccc(=O)[nH]c3=O)[C@H](O)[C@@H]2O)O[C@H](CO)[C@@H](O)[C@@H]1O` [compound 4, α-GlcNAc-CF2] showed an IC50 (PglC (Cj) [2]) of 32 ± 5.3 µM.
`CC(=O)N[C@H]1[C@@H](OP(=O)(O)[C@@H](F)P(=O)(O)OC[C@H]2O[C@@H](n3ccc(=O)[nH]c3=O)[C@H](O)[C@@H]2O)O[C@H](CO)[C@@H](O)[C@@H]1O` [compound 7, α-GlcNAc-(S)-CHF] gave an inhibition at 100 µM (PglC (Cj) [3]) of 52 ± 10%.
Compound `CC(=O)N[C@H]1[C@@H](OP(=O)(O)CP(=O)(O)OC[C@H]2O[C@@H](n3ccc(=O)[nH]c3=O)[C@H](O)[C@@H]2O)O[C@H](CO)[C@@H](O)[C@@H]1O` [compound 11, α-GlcNAc-CH2] has an IC50 (WecA (Tm)) of 41 ± 10 µM and an inhibition at 100 µM (PglC (Cj) [3]) of 28 ± 12%.

Reference: publication PMC10922802 (Journal of the American Chemical Society, 2023)
